Data from patent publication US20020098552A1, “Method for producing xanthosine-5'-monophosphate by fermentation using mutant strains of Coryneform bacteria” (priority 2000, published 2002).

Key:
[1] = tested on: Corynebacterium ammoniagenes AGRI45-11 (VKPM B-8009); assay type: cell-based; conditions: for Effect on growth of the XMP producer strain: in high concentration, strain AGRI45-11
Procedure: (§1) Corynebacterium ammoniagenes AGRI45-11 (VKPM B-8009) was treated with 50 μg/ml of NTG for 20 minutes. Then cells were plated on PYM medium having the composition (g/L): peptone—10.0, yeast extract—10.0, meat extract—5.0, NaCl—2.5, agar—20.0, and containing 40 g/L, or 50 g/L, or 60 g/L glycine. The inoculated plates were incubated at 30° C. for 5 days.
Corynebacterium ammoniagenes AGRI45-11 (VKPM B-8009) was treated with NTG, and cells were plated on the PYM medium as in Example 1, containing 45 μg/ml, or 50 μg/ml, or 55 μg/ml, or 60 μg/ml polymyxin. The inoculated plates were incubated at 30° C. for 5 days.
(§2) The parental strain Corynebacterium ammoniagenes AGRI45-11 (VKPM B-8009) was streaked onto PYM medium of Example 1, containing 5, 15, 30 or 50 μg/ml of rifampicin instead of glycine and inoculated plates were incubated at 34° C. for 3 days. The mutants resistant to rifampicin was selected from among spontaneously appeared colonies.
A series of mutants resistant to 50 or 100 μg/ml oligomycin was selected from the strain Corynebacterium anmoniagenes AGRI45-11 (VKPM B-8009) using the procedure, described in the Example 1, but oligomycin was used instead of glycine.
Corynebacterium ammoniagenes AGRI45-11 (VKPM B-8009) was treated with NTG, and cells were plated on PYM medium as in Example 1, containing 2, 4 or 6 μg/ml of CCCP instead of glycine. The inoculated plates were incubated at 30° C. for 5 days. […] This strain and the parent strain Corynebacterium ammoniagenes AGRI45-11 (VKPM B-8009) were each cultivated at 32° C. for 20 h with aeration in a seed medium as in the Example 1. Then 0.3 ml of the obtained culture was inoculated into 3 ml of the fermentation medium of the Example 1, in 20×200 mm test tubes, and cultivated at 32° C. for 72 hours with a rotary shaker. After the cultivation, an accumulated amount of XMP in the medium was determined by known method.
Corynebacterium ammoniagenes AGRI45-11 (VKPM B-8009) was treated with NTG as in Example 1, aliquots were introduced into 20×200 mm test tubes and incubated at 32° C. for 20 h with shaking in minimal medium having the following composition (see below) with a rotary shaker. Then the cells were collected and plated on the minimal medium agar and containing several combinations of the inhibitors:
(§3) The mutants resistant to the analogue were obtained using the procedure described in Example 6, except for the only combinations of the inhibitors was applied: DL-methionine sulfone-10 mg/ml +DL-methionine-20 mg/ml.

[2] = tested on: Corynebacterium ammoniagenes AGRI47-51 (VKPM B-8007); test: Growth of the methionine sulfone-resistant mutant with DL-methionine sulfone + DL-methionine; assay type: cell-based; conditions: mutant strain AGRI47-51
Procedure: as §3
Among the mutants which appeared after 4 to 8 days incubation the strain Corynebacterium ammoniagenes AGRI47-51 (VKPM B-8007) was selected. This strain and the parent strain Corynebacterium ammoniagenes AGRI45-11 (VKPM B-8009) were each cultivated at 32° C. for 20 h with aeration in a seed medium as in the Example 1. Then 0.3 ml of the obtained culture was inoculated into 3 ml of the fermentation medium of the Example 1, in 20×200 mm test tubes, and cultivated at 32° C. for 72 hours with a rotary shaker.

[3] = tested on: Corynebacterium ammoniagenes AGRI11-51 (VKPM B-8005); test: Growth of the methionine sulfoxide-resistant mutant with DL-methionine sulfoxide + DL-methionine; assay type: cell-based; conditions: mutant strain AGRI11-51
Procedure: Then the cells were collected and plated on the minimal medium agar and containing several combinations of the inhibitors:
Mutants which appeared after 4 to 8 days incubation were picked up and tested for their XMP productivity. Among them the strain Corynebacterium ammoniagenes AGRI11-51 (VKPM B-8005) was selected. This strain and the parent strain Corynebacterium anmoniagenes AGRI45-11 (VKPM B-8009) were each cultivated at 32° C. for 20 h with aeration in a seed medium as in the Example 1. Then 0.3 ml of the obtained culture was inoculated into 3 ml of the fermentation medium of the Example 1, in 20×200 mm test tubes, and cultivated at 32° C. for 72 hours with a rotary shaker. After the cultivation, an accumulated amount of XMP in the medium was determined by known method.

[4] = tested on: Corynebacterium ammoniagenes AGRI97-52 (VKPM B-8008); test: Growth of the CCCP-resistant mutant with CCCP; assay type: cell-based; conditions: mutant strain AGRI97-52
[5] = tested on: Corynebacterium ammoniagenes AGRI10-52 (VKPM B-8006); conditions: mutant strain AGRI10-52
Procedure: as §1

[6] = tested on: Corynebacterium ammoniagenes AGRI67-52 (VKPM B-8004); test: Growth of the oligomycin-resistant mutant in the presence of oligomycin; assay type: cell-based; conditions: mutant strain AGRI67-52
Procedure: A series of mutants resistant to 50 or 100 μg/ml oligomycin was selected from the strain Corynebacterium anmoniagenes AGRI45-11 (VKPM B-8009) using the procedure, described in the Example 1, but oligomycin was used instead of glycine. […] The best mutant, strain Corynebacterium ammoniagenes AGRI67-52 (VKPM B-8004) when tested in parallel as in Example 1 accumulated about 22 % more XMP than the parental strain Corynebacterium ammoniagenes AGRI45-11 (VKPM B-8009) (Table 4 ).

[7] = tested on: Corynebacterium ammoniagenes AGRI93-38 (VKPM B-8003); test: Growth of the rifampicin-resistant mutant with rifampicin; assay type: cell-based; conditions: mutant strain AGRI93-38
Procedure: as §2, with “colonies. Among the mutants the most productive strain Corynebacterium ammoniagenes AGRI93-38 (VKPM B-8003) was selected.” for “colonies.”

[8] = tested on: Corynebacterium ammoniagenes AGRI101-51 (VKPM B-8010); test: Growth of the polymyxin-resistant mutant in the presence of polymyxin; assay type: cell-based; conditions: mutant strain AGRI 101-51
[9] = tested on: Gram-positive bacterium Corynebacterium ammoniagenes; test: Growth inhibition of Corynebacterium ammoniagenes by polymyxin B; assay type: cell-based; conditions: high concentrations
Excerpt: Polymyxin B is a polypeptide antibiotics effective against Gram-negative bacteria. The cell membrane of the bacteria is considered to be the target of the antibiotic. […] The mutations conferring resistance to polymyxin B may affect cytoplasmic membrane and mimic a stress condition, inducing XMP efflux transporter. Therefore the mutants resistant to growth inhibition by the drug were selected.

CS(=O)(=O)CCC(N)C(=O)O (racemic) [DL-methionine sulfone]
Growth with 10 mg/ml DL-methionine sulfone + 20 mg/ml DL-methionine ([1]; 10 mg/ml DL-methionine sulfone + 20 mg/ml DL-methionine, parent strain AGRI45-11): − | Effect on growth of the XMP producer strain [1]: inhibited the growth | Growth with 10 mg/ml DL-methionine sulfone + 20 mg/ml DL-methionine [2]: +

C[S+]([O-])CCC(N)C(=O)O (racemic) [DL-methionine sulfoxide]
Growth with 10 mg/ml DL-methionine sulfoxide + 20 mg/ml DL-methionine ([1]; 10 mg/ml DL-methionine sulfoxide + 20 mg/ml DL-methionine, parent strain AGRI45-11): − | Effect on growth of the XMP producer strain [1]: inhibited the growth | Growth with 10 mg/ml DL-methionine sulfoxide + 20 mg/ml DL-methionine [3]: +

CSCCC(N)C(=O)O (racemic) [DL-methionine]
Effect on growth of the XMP producer strain [1]: inhibited the growth

N#CC(C#N)=NNc1cccc(Cl)c1 [CCCP, Carbonyl cyanide m-chlorophenyl hydrazone]
Growth with 4 μg/ml CCCP ([1]; 4 μg/ml CCCP, parent strain AGRI45-11): − | Growth with 4 μg/ml CCCP [4]: +

NCC(=O)O [glycine]
Growth in the presence of 6% glycine ([1]; 6% glycine, parent strain AGRI45-11): − | Growth in the presence of 6% glycine [5]: +

CC[C@H]1/C=C/C=C/C[C@@H](C)[C@H](O)[C@@](C)(O)C(=O)[C@@H](C)[C@H](O)[C@@H](C)C(=O)[C@@H](C)[C@H](O)[C@@H](C)/C=C/C(=O)O[C@@H]2[C@H](C)[C@H](CC1)O[C@]1(CC[C@H](C)[C@H](C[C@@H](C)O)O1)[C@H]2C [oligomycin]
Growth in the presence of 100 μg/ml oligomycin ([1]; 100 μg/ml oligomycin, parent strain AGRI45-11): − | Growth in the presence of 100 μg/ml oligomycin [6]: +

CO[C@H]1/C=C/O[C@@]2(C)Oc3c(C)c(O)c4c(O)c(c(/C=N/N5CCN(C)CC5)c(O)c4c3C2=O)NC(=O)/C(C)=C\C=C\[C@H](C)[C@H](O)[C@@H](C)[C@@H](O)[C@@H](C)[C@H](OC(C)=O)[C@@H]1C [rifampicin]
Growth with 15 μg/ml rifampicin ([1]; 15 μg/ml rifampicin, parent strain AGRI45-11): − | Growth with 15 μg/ml rifampicin [7]: +

Polymyxin B
Growth in the presence of 45 μg/ml polymyxin ([1]; 45 μg/ml polymyxin, parent strain AGRI45-11): − | Growth in the presence of 45 μg/ml polymyxin [8]: + | Concentration that inhibited the growth [9]: 40 to 50 µg/mL
